Counter-ions that a name gives are not always drawn. Like-named read-outs stand apart in the source and are kept apart here.
What was measured:
D2 receptors = D2 receptors (Rattus norvegicus, UniProt P61169); experiment: biochemical; format: binding
Method: (§1) Specific binding to σ, D2, D3, 5H2 and 5HT1a receptors has been tested as follows:
D2 receptors: A 2-nM solution of radioactive spiperone ([^3 H]spiperone), which acts as a specific ligand, was incubated with the membrane corresponding to 20 mg of rat striatum for 20 min at 35° C. buffered at pH 7.4 with Tris.HCl. The non-specific binding was then determined by addition of a micromolar concentration of unlabelled spiperone. […] After the incubation was completed, the sample was filtered through a glass fiber filter and then washed three times with Tris.HCl buffer. The amount of receptor-bound radioactivity was retained on the membrane and determined by liquid scintillation counting.
(§2) Values are expressed as IC50 in molar concentrations.

5HT2 receptors = target: T1, 5HT2 receptors (Rattus norvegicus, UniProt P14842); experiment: 5HT2 receptor binding ([3H]ketanserin displacement); conditions: for IC50: [3H]ketanserin 0.5 nM, rat cortex membrane, 30 min, 35° C., pH 7.4; for specificity over 5HT2 receptors versus D2 receptors (in words): D2 /5HT2 ratio
T1 construct: membrane corresponding to 1 mg of rat cortex; from tissue; host or cells: rat cortex membranes
Method: as §1
5HT2 receptors: A 0.5 nM solution of radioactive ketanserin ([^3 H]ketanserin), which acts as a specific ligand, was incubated with the membrane corresponding to 1 mg of rat cortex for 30 min at 35° C. buffered at pH 7.4 with Tris.HCl. […] After the incubation was completed, the sample was filtered through a glass fiber filter and then washed three times with Tris.HCl buffer. The amount of receptor-bound radioactivity was retained on the membrane and determined by liquid scintillation counting.
as §2

D3 receptors = target: T2, D3 receptors (Homo sapiens, UniProt P35462); experiment: biochemical; format: binding
T2 construct: purchased RBI; host or cells: mouse fibroblasts (CCL 1,3)
Method: as §1
D3 receptors: A 0.1 nM solution of radioactive YM-0951 ([^3 H]YM-0951), which acts as a specific ligand, was incubated with the membrane provided by RBI obtained from mouse fibroblasts (CCL 1,3) for 15 min at 37° C., buffered at pH 7.4 with Tris.HCl. […] After the incubation was completed, the sample was filtered through a glass fiber filter and then washed three times with Tris.HCl buffer. The amount of receptor-bound radioactivity was retained on the membrane and determined by liquid scintillation counting.
as §2

5HT1a receptors = target: T3, 5HT1a receptors (Rattus norvegicus, UniProt P19327); experiment: biochemical; format: binding
T3 sequence (P19327 1-422): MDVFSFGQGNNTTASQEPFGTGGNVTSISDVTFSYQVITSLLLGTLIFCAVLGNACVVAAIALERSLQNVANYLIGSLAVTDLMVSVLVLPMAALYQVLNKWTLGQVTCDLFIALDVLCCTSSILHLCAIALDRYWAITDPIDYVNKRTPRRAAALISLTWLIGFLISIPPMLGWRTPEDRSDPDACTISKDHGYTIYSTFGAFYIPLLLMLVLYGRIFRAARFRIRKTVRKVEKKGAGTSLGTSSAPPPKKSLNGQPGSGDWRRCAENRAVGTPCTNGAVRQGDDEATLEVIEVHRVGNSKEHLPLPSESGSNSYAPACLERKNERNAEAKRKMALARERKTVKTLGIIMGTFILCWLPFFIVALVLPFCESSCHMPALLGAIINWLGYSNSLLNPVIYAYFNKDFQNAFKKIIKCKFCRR
Method: as §1
5HT1a receptors: A 1 nM solution of radioactive […], which acts as a specific ligand, was incubated with the membrane corresponding to 1 mg of rat cortex for 20 min at 35° C. buffered at pH 7.4 with Tris.HCl. Non-specific binding was then determined by addition of a 20 micromolar concentration of unlabelled buspirone. […] After the incubation was completed, the sample was filtered through a glass fiber filter and then washed three times with Tris.HCl buffer. The amount of receptor-bound radioactivity was retained on the membrane and determined by liquid scintillation counting.
as §2

σ receptors = σ receptors (Cavia porcellus, UniProt Q60492); experiment: biochemical; format: binding
Method: as §1
σ receptors: A 2-nM solution of radioactive 3-PPP ((+) [^3 H]3-[3-hydroxyphenyl]-N-(1-propyl)-piperidine), which acts as a specific ligand, was incubated with the membrane corresponding to 40 mg of guinea-pig total brain for 90 min at 25° C. buffered at pH 8.5 with Tris.HCl. Thus, total binding of ligand to membranes was attained. Non-specific binding was then determined by adding a micromolar concentration of unlabelled 3-PPP. […] After the incubation was completed, the samples were filtered through a glass fiber filter and then washed three times with Tris.HCl buffer. The amount of receptor-bound radioactivity was retained on the membrane and determined by liquid scintillation counting.
as §2

[1] = system: apomorphine-induced climbing behaviour; experiment: Test (C): Inhibition of apomorphine-induced climbing behaviour; format: in vivo, Male Swiss mice; conditions: Mus musculus, 1 h; oral, mice; apomorphine 1 mg/kg s.c. after 60 min; climbing assessed after further 60 min
Method: One week prior to experiment, animals were kept in our facilities at a temperature of 20°-22° C. and 12/12 h light-dark cycle, and had free access to food and water. Two hours prior to experiment, the animals were placed in individual cages without access to food.
Two additional assessments were performed at 10-min intervals.
The walls of the box were made of translucent methacrylate except one of the lateral surfaces (7.5 cm wide) which was a 3-mm wire mesh. […] If an animal keeps several positions within the 2-min observation, the seconds elapsed in each position will be recorded. Finally, mean scoring was calculated.

[2] = animal pharmacological tests (overall statement); conditions: in vivo
[3] = catalepsy in rats after oral administration (extrapyramidal effects); format: in vivo; conditions: rat, in vivo, po
catalepsy = experiment: as above; format: in vivo; conditions: rats, oral
[4] = [3H]spiperone 2 nM, rat striatum membrane, 20 min, 35° C., pH 7.4, read-out: IC50 (M) D2
[5] = [3H]YM-0951 0.1 nM, membrane from mouse fibroblasts (CCL 1,3), 15 min, 37° C., pH 7.4, read-out: IC50 (M) D3
[6] = [3H]5-OH-DPAT 1 nM, rat cortex membrane, 20 min, 35° C., pH 7.4, read-out: IC50 (M) 5HT1A
[7] = [3H]3-PPP 2 nM, guinea-pig total brain membrane, 90 min, 25° C., pH 8.5, read-out: IC50 (M) σ

T1 sequence (P14842 whole entry): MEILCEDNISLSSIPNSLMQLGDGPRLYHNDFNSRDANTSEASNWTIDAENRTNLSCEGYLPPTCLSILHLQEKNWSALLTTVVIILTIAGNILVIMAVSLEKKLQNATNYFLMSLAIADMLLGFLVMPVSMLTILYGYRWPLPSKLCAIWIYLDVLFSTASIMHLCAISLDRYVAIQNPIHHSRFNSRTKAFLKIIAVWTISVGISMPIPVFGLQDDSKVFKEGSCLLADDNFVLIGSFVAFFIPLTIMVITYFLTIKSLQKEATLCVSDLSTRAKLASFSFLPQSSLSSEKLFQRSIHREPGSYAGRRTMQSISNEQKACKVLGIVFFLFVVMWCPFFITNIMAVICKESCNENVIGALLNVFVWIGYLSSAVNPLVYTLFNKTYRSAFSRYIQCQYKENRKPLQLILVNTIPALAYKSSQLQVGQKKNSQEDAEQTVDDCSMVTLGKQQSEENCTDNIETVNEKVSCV
T2 sequence (P35462 whole entry): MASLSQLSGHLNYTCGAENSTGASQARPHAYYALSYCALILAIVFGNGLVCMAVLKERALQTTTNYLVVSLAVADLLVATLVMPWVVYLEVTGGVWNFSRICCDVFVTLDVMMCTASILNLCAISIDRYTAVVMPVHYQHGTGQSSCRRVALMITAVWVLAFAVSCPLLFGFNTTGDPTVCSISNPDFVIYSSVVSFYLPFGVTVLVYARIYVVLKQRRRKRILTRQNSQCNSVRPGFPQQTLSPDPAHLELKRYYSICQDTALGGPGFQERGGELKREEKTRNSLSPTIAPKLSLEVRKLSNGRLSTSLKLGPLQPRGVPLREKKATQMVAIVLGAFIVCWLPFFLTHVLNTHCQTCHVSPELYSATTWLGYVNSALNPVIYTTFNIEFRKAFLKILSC
σ receptors, sequence (Q60492 whole entry): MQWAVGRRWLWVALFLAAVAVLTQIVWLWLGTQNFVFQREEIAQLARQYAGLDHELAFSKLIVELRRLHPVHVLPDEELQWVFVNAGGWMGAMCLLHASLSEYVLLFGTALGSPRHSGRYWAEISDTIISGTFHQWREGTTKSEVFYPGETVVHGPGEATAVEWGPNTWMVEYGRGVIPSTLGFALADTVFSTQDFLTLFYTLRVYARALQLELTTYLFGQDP
D2 receptors, sequence (P61169 whole entry): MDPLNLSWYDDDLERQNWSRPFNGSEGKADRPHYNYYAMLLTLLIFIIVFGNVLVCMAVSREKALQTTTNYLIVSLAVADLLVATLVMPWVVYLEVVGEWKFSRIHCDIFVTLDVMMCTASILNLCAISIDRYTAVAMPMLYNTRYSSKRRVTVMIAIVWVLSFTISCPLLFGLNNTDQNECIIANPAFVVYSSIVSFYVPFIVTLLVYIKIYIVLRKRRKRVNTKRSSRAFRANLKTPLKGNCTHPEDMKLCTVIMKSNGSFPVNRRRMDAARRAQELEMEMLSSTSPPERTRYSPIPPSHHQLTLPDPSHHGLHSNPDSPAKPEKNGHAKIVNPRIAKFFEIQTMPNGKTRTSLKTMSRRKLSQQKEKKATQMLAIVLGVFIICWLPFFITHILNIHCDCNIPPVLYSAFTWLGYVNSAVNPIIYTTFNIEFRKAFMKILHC

Compound Cc1cc(=O)c2ccc(OCCCN3CCC(C(=O)c4ccc(F)cc4)CC3)cc2o1 [Example 2, 7-[3-(4-p-fluorobenzoyl-1-piperidinyl)propoxy]-2-methyl-chromen-4-one hydrochloride] has an IC50 (D2 receptors; [4]) of 3.74e-07 M, an IC50 (5HT2 receptors) of 56.6 nM and an IC50 (D3 receptors; [5]) of 8.55e-07 M. For the same compound, the IC50 (5HT1a receptors; [6]) was 1.57e-06 M and the IC50 (σ receptors; [7]) was 7.99e-07 M.
Cc1coc2cc(OCCCN3CCC(C(=O)c4ccc(F)cc4)CC3)ccc2c1=O [Example 3, 7-[3-(4-p-fluorobenzoyl-1-piperidinyl)propoxy]-3-methyl-chromen-4-one hydrochloride] gave an IC50 (D2 receptors) of 1.29e-07 M, an IC50 (5HT2 receptors) of 82 nM and an IC50 (D3 receptors) of 1.94e-07 M. For the same compound, the IC50 (5HT1a receptors) was 7.64e-07 M and the IC50 (σ receptors) was 2.43e-07 M.
In the case of OC(CCCN1CCN(c2ncc(F)cn2)CC1)c1ccc(F)cc1 (centres unmarked) [BMY-14802, reference compound], the IC50 (D2 receptors; [4]) is reported as 1.59e-05 M and the IC50 (5HT2 receptors) is reported as 1150 nM.
With Cl.O=C(c1ccc(F)cc1)C1CCN(CCCOc2ccc3c(=O)c(CO)coc3c2)CC1 [Example 4, 3-Hydroxymethyl-7-[3-(4-p-fluorobenzoyl-1-piperidinyl)propoxy]-chromen-4-one hydrochloride] the ED50 [1] was 3.2 mg/kg, the IC50 (5HT2 receptors) was 47.4 nM and the “D2 /5HT2” value (5HT2 receptors; ratio of IC50 D2 to IC50 5HT2) was 4.01. For the same compound, the “activity in animal pharmacological tests (in words)” value [2] was “very active in animal pharmacological tests”, the TD50 [3] was 15 mg/kg and the “extrapyramidal effects (in words)” value (catalepsy) was “did not show very important extrapyramidal effects”.
With Cl.O=C(c1ccc(F)cc1)C1CCN(CCCOc2ccc3c(=O)ccoc3c2)CC1 [Example 1, 7-[3-(4-p-fluorobenzoyl-1-piperidinyl)propoxy]chromen-4-one hydrochloride] the IC50 (D2 receptors; [4]) was 4.36e-07 M, the “specificity over 5HT2 receptors versus D2 receptors (in words)” value (5HT2 receptors; hydrochloride) was “the most specific over 5HT2 receptors versus D2 receptors” and the “specificity over 5HT2 receptors versus D2 receptors (in words)” value (5HT2 receptors; listed as Ex. 1, hydrochloride) was “surpasses BMY-14802 and risperidone in D2 /5HT2 ratio”. For the same compound, the IC50 (5HT2 receptors) was 17.1 nM, the IC50 (D3 receptors; [5]) was 6.88e-08 M and the “activity on D3 receptors (in words)” value (D3 receptors; compared with 7-OH-DPAT) was “active on D3 receptors in the same order as 7-OH-DPAT”. It also gave an IC50 (5HT1a receptors; [6]) of 1.56e-06 M and an IC50 (σ receptors; [7]) of 1.46e-08 M.
